Source: US11529342B2, “Sorbic and benzoic acid and derivatives thereof enhance the activity of a neuropharmaceutical” (Los Angeles Biomedical Research Institute at Harbor-UCLA …, priority 2009, dated 2022)
Entries after “also recorded” stand apart in the source; their conditions may differ.

Key:
Male 129 SVE adult mice [1] = test: Acoustic startle habituation in mice, with and without amphetamine disruption; assay type: in vivo; settings: for startle habituation, correction of amphetamine-induced disruption: amphetamine 10 mg/kg 30 minutes before the experiment
Text: (§1) Therefore, to test the hypothesis that combinational NMDA-enhancing agent treatment has better efficacy than individual agent alone, we tested startle habituation and PPI in animals receiving single NMDA-enhancing agents, sarcosine (N-methylglycine, a glycine transporter-1 inhibitor), benzoate (a D-amino acid oxidase inhibitor), the combination of both agents or the vehicle. We also tested the hypothesis in a well accepted pharmacological model of schizophrenia, amphetamine--disruption of startle habituation and PPI.
For habituation, we present six trials of a single acoustic stimulus to each mouse. To provide a consistent acoustic environment and to mask external noises, maintain a continuous background noise level of 70 dB within each startle chamber. We collected the peak or average response from each mouse on each of six trials, then averaged the six responses together for each mouse. Five more trials at the end of PPI were done. The results were averaged and compared to the original six trials. The difference of startle responses between the initial six and the last five trials were considered the amount of habituation. Analyses include the independent variable (e.g., vehicle or drug treatment) as a factor in analyses of variance (ANOVA) on the dependent measures (difference of the average of the first and last […]).
(§2) There were a total of 36 trials in the experiments. The three prepulse stimuli were with a duration of 20 msec. For each mouse the following metrics were determined: 1) Average response magnitude on pulse--only trials 1 to 6 and 32 to 36; 2)Average response magnitude in each of the four trial types between trials 7 and 31 inclusively (i.e., ten pulse-only trials and five each of the three prepulse variations). The first block of pulse-only trials were analyzed as measures of startle reactivity. The first and last blocks of pulse-only trials were analyzed together in a repeated measure ANOVA to assess habituation of acoustic startle across the test session. The […] (3, 6, or 12 dB above background) derived from trials 7 to 31 were used to assess PPI which was calculated for each mouse as: Percentage score: PPI=100%×{[pulse-only units−(prepulse pulse units)]/(pulse-only units)}.
Male 129 SVE adult mice were first tested at baseline. Four groups of 10 mice each were treated with sarcosine (200 mg/kg), benzoate (100 mg/kg), a combination of both sarcosine and benzoate (same doses as the individual treatment), or with vehicle for one week before the test. The mice continued to receive the drug until one week later when amphetamatine (10 mg/kg) was administered 30 minutes before the experiments.

Male 129 SVE adult mice [2] = test: Prepulse inhibition (PPI) of acoustic startle, amphetamine disruption; assay type: in vivo; settings: for PPI, correction of disruption by amphetamine: sarcosine 200 mg/kg, benzoate 100 mg/kg or both, amphetamine 10 mg/kg 30 minutes before
Text: as §1
For the systematic investigation of the neurobiological systems that modulate sensorimotor inhibition, startle magnitude was investigated. Startle magnitude is reduced when the pulse stimulus is preceded 30 to 500 msec by a weak prepulse. This inhibition (“gating”) of a motor response elicited by a weak sensory event, termed PPI, provides an operational measure of sensorimotor gating. Prepulse stimuli of 3, 6, or 12 dB above the 70 dB background noise inhibit the startle response elicited by 120-dB pulse stimuli.
Prestimuli used in intranodal studies of sensorimotor gating of acoustic startle are by the delivery of a discrete acoustic prepulse several msec before the startle pulse, with an intensity below startle threshold. […]
as §2, with “The three prepulse stimuli were with a duration of 20 msec.” left out, “units)}. […]” for “units)}.”

schizophrenia patients [3] = test: 6-week randomized double-blind placebo-controlled add-on trial in schizophrenia, efficacy (PANSS, SANS, Quality of Life, GAF); assay type: in vivo, human; settings: 1000-mg/day adjunctive to atypical antipsychotics, 6 weeks, n=18 per group
Procedure: The research protocol was approved by the Institutional Review Boards (IRB) of the institute. Patients were screened and evaluated by the research psychiatrists. After complete description of the study to the subjects, written informed consent was obtained in line with the IRB's guidelines. The Structured Clinical Interview for DSM-IV was conducted for the diagnosis.
The dosing for the concurrent antipsychotics (all atypical antipsychotics), was an optimal dosing strategy which minimize side effects, especially extrapyramidal side effects (EPS), and can still yield favorable efficacy. […]
All patients were then randomly assigned under double-blind conditions to receive a 6-week trial of placebo, or sodium benzoate (1 grams) daily. […] Patient's compliance and safety were closely monitored by the research psychiatrists and the inpatient nursing staff.
The primary outcome measures were psychopathology changes measured by PANSS (3) and, Scales for the Assessment of Negative symptoms (SANS) (4) total scores, Quality of Life scale (10 items for inpatient use) (1, 5), and Global Assessment of Function (Axis V in DSM IV) (2). […]
Clinical ratings were performed by the research psychiatrists who were trained and experienced in the rating scales. Inter-rater reliability was analyzed with the ANOVA test. […]

schizophrenia patients [4] = test: 6-week add-on trial in schizophrenia, safety and side-effect assessments; assay type: in vivo, human; settings: 6 weeks
Text: All patients were then randomly assigned under double-blind conditions to receive a 6-week trial of placebo, or sodium benzoate (1 grams) daily. Patients were randomized in clusters of six subjects, without stratification, through a computer-generated randomization table to receive placebo or active drugs in a 1:1 ratio. To ensure concealment of the randomization assignment, study medication was provided in coded containers with supply of identical-appearing capsules of placebo or either of active compounds. The research pharmacist implemented random allocation and masked treatment assignment was communicated by telephone to research staff. Patients, caregivers, and investigators (except for the investigational pharmacist) were all masked to the assignment. Patient's compliance and safety were closely monitored by the research psychiatrists and the inpatient nursing staff.
Side-effect assessments included Simpson-Angus Rating Scale for EPS (6), Abnormal Involuntary Movement Scale (AIMS) for dyskinesia (7), and Barnes Akathesia Scale (8). Systemic side effects of treatments were evaluated by means of routine physical and neurological examinations, laboratory tests, and reviewed by applying the Udvalg for Kliniske Undersogelser (UKU) Side-effects Rating Scale (9).

rats = test: Forced swim test (FST); assay type: in vivo; settings: 500 mg/kg; for Immobility time (%): 5-min test, vehicle 46.94 ± 4.6; for duration of immobility compared to the vehicle control group: FST
Procedure: Following acclimation at least 7 days in the animal facility prior to initiation of behavioral testing, the animals (rats) were subjected to the forced swim test (FST). The method of the […] has been used in previous animal studies of depression, which was modified by Cryan from the Porsolt's FST. (Porsolt et al, 1977; Cryan et al, 2002) The test was performed using a acrylic cylinder (diameter, 20 cm; height, 40 cm) filled to a height of 30 cm with 25° C. water. Rats were processed to a 15-min conditioning swim. Following 24 h after their first exposure, the rats were again placed in the swim apparatus for 5 min. The behavior of rats was observed 5 min after the administration of various drug treatments or 0.9% saline (control). All behavioral testing was conducted between 1600-1800 h. On. the study day, the total periods of immobility during the 5-min testing period were recorded using the EthoVision Basic V 3.1 analysis program (Noldus, Wageningen, Netherlands). For the present experiment, the immobility threshold was set at 15% and a fixed averaging interval of 1 second was chosen to smooth the mobility parameter in EthoVision software. Below the immobile threshold, the animal is considered immobile. Using the settings, the activity of all rats was analyzed automatically and quantitatively for mobility and numbers of crossing vertical central line in the FST.

[5] = mice, sarcosine 200 mg/kg, benzoate 100 mg/kg or both

| SMILES | startle habituation, correction of amphetamine-induced disruption (Male 129 SVE adult mice [1]; [5]) | PPI, correction of disruption by amphetamine (Male 129 SVE adult mice [2]) | Immobility time (%) (rats) | duration of immobility compared to the vehicle control group (rats) | other results |
| --- | --- | --- | --- | --- | --- |
| O=C([O-])c1ccccc1.[Na+] [Sodium Benzoate, sodium benzoate] | partially correct the deficit; also recorded: better than sarcosine and close to effect seen in the combination treatment; also recorded: only partially corrected the deficit; also recorded: better than sarcosine and close to that seen in the combination treatment | partially corrected | 40.17 ± 3.3% | decrease the duration of immobility significantly | startle habituation (difference of startle responses between initial and last trials) (Male 129 SVE adult mice [1]; mice treated one week, sarcosine 200 mg/kg, benzoate 100 mg/kg or both, no amphetamine): close to the effect seen in the combination treatment; positive and negative symptoms and quality of life versus placebo (schizophrenia patients [3]): significantly improve positive and negative symptoms and quality of life than placebo; safety and tolerability (schizophrenia patients [4]; adjunctive therapy): good safety and tolerability; treatment-emergent side effects (schizophrenia patients [4]; benzoate versus placebo): all mild, short-lived, and not warranting medical treatment |
| C/C=C/C=C/C(=O)[O-].[K+] [Potassium Sorbate, potassium sorbate] | – | – | 27.64 ± 6.2% | decrease the duration of immobility significantly | – |
| CNCC(=O)O [sarcosine, N-methylglycine, reference compound] | combination treatment>benzoate>sarcosine | partially corrected | – | – | startle habituation, correction of amphetamine-induced disruption (Male 129 SVE adult mice [1]; mice, sarcosine 200 mg/kg, benzoate 100 mg/kg or both, listed as NMG): partially correct the deficit; also recorded: only partially corrected the deficit |
| CC(N)Cc1ccccc1 (stereo not drawn) [amphetamine, reference compound] | – | – | – | – | effect of amphetamine on startle habituation (Male 129 SVE adult mice [1]; mice, amphetamine 10 mg/kg 30 minutes before the experiments): disrupted the habituation; effect of amphetamine on PPI (Male 129 SVE adult mice [2]; amphetamine 10 mg/kg 30 minutes before the experiments): disrupted the inhibition in all treatments |
